Data as given in publication PMC7915724 (2021).
Values belong to the compound of their own block, whether it stands above or below them.

Key:
[1] = test system: FPy24 (DNA, i motif) GACCCCGCCCCCGGCCCGCCCCGG; experiment: MST; conditions: 100 mM KCl (annealing buffer); 1 μM DNA; assay pH not stated
[2] = test system: Py24 (VEGF i-motif) (DNA, i motif) GACCCCGCCCCCGGCCCGCCCCGG; experiment: TO displacement, fluorescence; conditions: 100 mM KCl (annealing buffer); 1 μM DNA, 2 μM thiazole orange displaced; assay pH not stated
[3] = test system: FBCL2 (DNA, i motif) CAGCCCCGCTCCCGCCCCCTTCCTCCCGCGCCCGCCCCT; experiment: MST; conditions: 100 mM KCl (annealing buffer); 1 μM DNA; assay pH not stated
[4] = test system: Fc-kit (DNA, i motif) CCCCTCCCTCGCGCCCGCCCG; experiment: MST; conditions: 100 mM KCl (annealing buffer); 1 μM DNA; assay pH not stated
[5] = test system: biotin-Pu24 (VEGF G-quadruplex) (DNA, G4) CCGGGGCGGGCCGGGGGCGGGGTC; experiment: SPR; conditions: 100 mM KCl; 20 mM Tris-HCl pH 7.4, 25 °C; tested up to 50 μM
[6] = test system: KRAS (DNA, i motif) GCCCGGCCCCCGCTCCTCCCCCGCCGGCCCGGCCCGGCCCCCTCCTTCTCCCCG; experiment: TO displacement, fluorescence; conditions: 100 mM KCl (annealing buffer); 1 μM DNA, 2 μM thiazole orange displaced; assay pH not stated
[7] = test system: BCL2 (DNA, i motif) CAGCCCCGCTCCCGCCCCCTTCCTCCCGCGCCCGCCCCT; experiment: TO displacement, fluorescence; conditions: 100 mM KCl (annealing buffer); 1 μM DNA, 2 μM thiazole orange displaced; assay pH not stated
[8] = test system: c-kit (DNA, i motif) CCCCTCCCTCGCGCCCGCCCG; experiment: TO displacement, fluorescence; conditions: 100 mM KCl (annealing buffer); 1 μM DNA, 2 μM thiazole orange displaced; assay pH not stated
[9] = test system: Py24 (VEGF i-motif) (DNA, i motif) GACCCCGCCCCCGGCCCGCCCCGG; experiment: ITC; conditions: 100 mM KCl, 30 mM KH2PO4, 30 mM K2HPO4; 1× BPES (1 mM EDTA) pH 5.0, 30 °C; Py24 titrated into 3c; one-site fit
[10] = test system: FPu24 (DNA, G4) CCGGGGCGGGCCGGGGGCGGGGTC; experiment: MST; conditions: 100 mM KCl (annealing buffer); 1 μM DNA; assay pH not stated
[11] = test system: FKRAS (DNA, i motif) GCCCGGCCCCCGCTCCTCCCCCGCCGGCCCGGCCCGGCCCCCTCCTTCTCCCCG; experiment: MST; conditions: 100 mM KCl (annealing buffer); 1 μM DNA; assay pH not stated
[12] = test system: biotin-Hairpin (duplex DNA) (DNA, hairpin, HEG linker between nucleotides 10 and 11 (joins the two TATAGCTATA halves)) TATAGCTATATATAGCTATA; experiment: SPR; conditions: 100 mM KCl; 20 mM Tris-HCl pH 7.4, 25 °C; tested up to 50 μM
[13] = test system: Pu24 (VEGF G-quadruplex) (DNA, G4) CCGGGGCGGGCCGGGGGCGGGGTC; experiment: TO displacement, fluorescence; conditions: 100 mM KCl (annealing buffer); 1 μM DNA, 2 μM thiazole orange displaced; assay pH not stated
[14] = test system: FHairpin (duplex DNA) (DNA, hairpin, HEG linker between nucleotides 10 and 11 (joins the two TATAGCTATA halves)) TATAGCTATATATAGCTATA; experiment: MST; conditions: 1 μM DNA; assay buffer not stated
[15] = test system: biotin-Py24 (VEGF i-motif) (DNA, i motif) GACCCCGCCCCCGGCCCGCCCCGG; experiment: SPR; conditions: 100 mM KCl, 20 mM MES pH 5.5, 0.05% Tween-20, 25 °C
[16] = test system: FPDGFR-β (DNA, i motif) GCGTCCACCCTCCCTGCCCCGCCGCCCCCCCTTCTCCCAGC; experiment: MST; conditions: 100 mM KCl (annealing buffer); 1 μM DNA; assay pH not stated
[17] = test system: PDGFR-β (DNA, i motif) GCGTCCACCCTCCCTGCCCCGCCGCCCCCCCTTCTCCCAGC; experiment: TO displacement, fluorescence; conditions: 100 mM KCl (annealing buffer); 1 μM DNA, 2 μM thiazole orange displaced; b21 gives lower bound of range as 8.01
[18] = test system: biotin-Hairpin (duplex DNA) (DNA, hairpin, HEG (hexaethylene glycol) linker between 10 and 11) TATAGCTATATATAGCTATA; experiment: SPR; conditions: 100 mM KCl; 20 mM Tris-HCl pH 7.4, 25 °C; tested up to 50 μM
[19] = test system: biotin-Pu24 (VEGF G-quadruplex) (DNA, G4) CCGGGGCGGGCCGGGGGCGGGGTC; experiment: SPR; conditions: 100 mM KCl; 20 mM Tris-HCl pH 7.4, 25 °C; tested up to 50 μM; remark: listed apart in the source

KD [1]: 1.14 µM
DC50 [2]: 3.19 µM
KD [3]: 95.1 µM
KD [4]: 43.3 µM
KD [5]: > 50 µM
DC50 [6]: 13.1 µM
DC50 [7]: 16.1 µM
DC50 [8]: 14.7 µM
KD [9]: 1.13 µM
KD [10]: 47.9 µM
KD [11]: 37.8 µM
KD [12]: > 50 µM
DC50 [13]: 8.29 µM
KD [14]: 91.4 µM
KD ([15]; b20 prints 1.93): 1.95 µM
KD [16]: 14.4 µM
DC50 [17]: 8.08 µM
SMILES: CC1(C)CC[C@]2(C(=O)NCCCNCCNCCCN)CC[C@]3(C)C(=CC[C@@H]4[C@@]5(C)CC[C@H](O)C(C)(C)[C@@H]5CC[C@]43C)[C@@H]2C1

KD [5]: > 50 µM
KD [12]: > 50 µM
KD [15]: 3.09 µM
SMILES: CC1(C)CC[C@]2(C(=O)NCCNC(=O)/C=C/c3ccc(O)c(O)c3)CC[C@]3(C)C(=CC[C@@H]4[C@@]5(C)CC[C@H](O)C(C)(C)[C@@H]5CC[C@]43C)[C@@H]2C1

KD [5]: > 50 µM
KD [12]: > 50 µM
KD [15]: 5.01 µM
SMILES: Cc1cn(CC(=O)NCCCNCCNCCCNC(=O)[C@]23CCC(C)(C)C[C@H]2C2=CC[C@@H]4[C@@]5(C)CC[C@H](O)C(C)(C)[C@@H]5CC[C@@]4(C)[C@]2(C)CC3)c(=O)[nH]c1=O

KD [18]: > 50 µM
KD [19]: > 50 µM
KD [15]: 13.0 µM
SMILES: CC1(C)CC[C@]2(C(=O)NCc3cn(CCC(=O)O)nn3)CC[C@]3(C)C(=CC[C@@H]4[C@@]5(C)CC[C@H](O)C(C)(C)[C@@H]5CC[C@]43C)[C@@H]2C1
